Laboratory results from US10040781B2, “Tank-binding kinase inhibitor compounds” (Gilead Sciences, Inc., priority 2014, dated 2018).
Values belong to the compound of their own block, whether it stands above or below them.

Assays:
IKKε = IKKε (Homo sapiens (Human), UniProt Q14164); assay: IKKε TR-FRET enzymatic assay; assay type: biochemical; settings: read-out: IKKe IC50
hJAK2 = hJAK2 (Homo sapiens (Human), UniProt O60674); assay: hJAK2 LANCE TR-FRET enzymatic assay; assay type: biochemical; settings: read-out: JAK2 IC50
Chain of hJAK2 (O60674 whole entry): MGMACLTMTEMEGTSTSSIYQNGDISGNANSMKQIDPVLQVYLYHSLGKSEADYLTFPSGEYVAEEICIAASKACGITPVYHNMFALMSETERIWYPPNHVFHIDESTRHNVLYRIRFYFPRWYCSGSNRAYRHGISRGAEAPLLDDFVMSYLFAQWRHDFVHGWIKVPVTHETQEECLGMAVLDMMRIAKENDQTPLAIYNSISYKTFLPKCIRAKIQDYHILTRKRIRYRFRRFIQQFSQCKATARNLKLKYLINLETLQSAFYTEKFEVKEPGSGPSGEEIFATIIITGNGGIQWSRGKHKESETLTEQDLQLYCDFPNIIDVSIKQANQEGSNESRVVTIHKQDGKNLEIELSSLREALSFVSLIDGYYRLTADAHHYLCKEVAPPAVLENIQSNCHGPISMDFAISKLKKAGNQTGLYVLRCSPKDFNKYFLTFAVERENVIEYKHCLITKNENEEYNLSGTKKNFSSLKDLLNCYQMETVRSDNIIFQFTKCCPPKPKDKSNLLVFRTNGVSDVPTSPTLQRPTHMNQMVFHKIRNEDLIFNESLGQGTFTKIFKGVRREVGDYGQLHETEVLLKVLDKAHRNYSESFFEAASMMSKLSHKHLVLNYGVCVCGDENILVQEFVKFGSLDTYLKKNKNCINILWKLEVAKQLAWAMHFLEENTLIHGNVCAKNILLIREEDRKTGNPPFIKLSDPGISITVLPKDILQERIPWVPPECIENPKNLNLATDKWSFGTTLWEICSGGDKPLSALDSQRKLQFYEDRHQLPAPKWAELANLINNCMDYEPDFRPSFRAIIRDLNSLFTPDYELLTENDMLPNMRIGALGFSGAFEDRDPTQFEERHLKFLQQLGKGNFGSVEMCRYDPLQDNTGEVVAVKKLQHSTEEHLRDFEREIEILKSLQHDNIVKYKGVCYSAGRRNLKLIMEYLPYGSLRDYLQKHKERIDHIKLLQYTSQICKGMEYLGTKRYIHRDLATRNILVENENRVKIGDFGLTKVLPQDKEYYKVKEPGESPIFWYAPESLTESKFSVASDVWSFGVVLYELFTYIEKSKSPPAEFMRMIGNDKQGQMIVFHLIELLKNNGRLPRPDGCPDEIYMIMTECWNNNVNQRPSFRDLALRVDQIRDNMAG

TBK1 = TBK1 (Homo sapiens (Human), UniProt Q9UHD2); assay: TBK1 TR-FRET enzymatic assay;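 note: phosphorylation of a biotinylated Ser/Thr peptide by purified full-length recombinant TBK1, read by TR-FRET after 240 min at 25 °C, IC50 is the geometric mean of at least four runs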
Chain of TBK1 (Q9UHD2 whole entry): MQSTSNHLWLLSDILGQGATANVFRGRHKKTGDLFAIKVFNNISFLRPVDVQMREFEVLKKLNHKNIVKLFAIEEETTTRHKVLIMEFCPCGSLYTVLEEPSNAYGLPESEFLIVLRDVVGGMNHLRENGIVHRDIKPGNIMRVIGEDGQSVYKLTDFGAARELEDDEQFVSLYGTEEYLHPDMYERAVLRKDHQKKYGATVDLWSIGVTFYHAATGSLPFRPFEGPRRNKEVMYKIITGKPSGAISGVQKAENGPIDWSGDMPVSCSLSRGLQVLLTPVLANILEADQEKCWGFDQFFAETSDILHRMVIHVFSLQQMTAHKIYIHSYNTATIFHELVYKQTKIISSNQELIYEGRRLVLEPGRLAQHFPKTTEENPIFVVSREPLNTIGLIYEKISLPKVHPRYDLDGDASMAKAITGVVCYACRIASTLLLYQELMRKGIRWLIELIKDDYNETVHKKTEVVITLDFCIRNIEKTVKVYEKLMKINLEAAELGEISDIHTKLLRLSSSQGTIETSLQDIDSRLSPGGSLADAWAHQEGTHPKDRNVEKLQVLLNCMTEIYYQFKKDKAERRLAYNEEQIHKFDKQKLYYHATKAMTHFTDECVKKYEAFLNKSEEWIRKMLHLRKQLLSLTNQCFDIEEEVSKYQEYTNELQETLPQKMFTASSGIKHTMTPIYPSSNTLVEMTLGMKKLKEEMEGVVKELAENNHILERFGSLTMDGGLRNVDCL

Chain of IKKε (Q14164 whole entry): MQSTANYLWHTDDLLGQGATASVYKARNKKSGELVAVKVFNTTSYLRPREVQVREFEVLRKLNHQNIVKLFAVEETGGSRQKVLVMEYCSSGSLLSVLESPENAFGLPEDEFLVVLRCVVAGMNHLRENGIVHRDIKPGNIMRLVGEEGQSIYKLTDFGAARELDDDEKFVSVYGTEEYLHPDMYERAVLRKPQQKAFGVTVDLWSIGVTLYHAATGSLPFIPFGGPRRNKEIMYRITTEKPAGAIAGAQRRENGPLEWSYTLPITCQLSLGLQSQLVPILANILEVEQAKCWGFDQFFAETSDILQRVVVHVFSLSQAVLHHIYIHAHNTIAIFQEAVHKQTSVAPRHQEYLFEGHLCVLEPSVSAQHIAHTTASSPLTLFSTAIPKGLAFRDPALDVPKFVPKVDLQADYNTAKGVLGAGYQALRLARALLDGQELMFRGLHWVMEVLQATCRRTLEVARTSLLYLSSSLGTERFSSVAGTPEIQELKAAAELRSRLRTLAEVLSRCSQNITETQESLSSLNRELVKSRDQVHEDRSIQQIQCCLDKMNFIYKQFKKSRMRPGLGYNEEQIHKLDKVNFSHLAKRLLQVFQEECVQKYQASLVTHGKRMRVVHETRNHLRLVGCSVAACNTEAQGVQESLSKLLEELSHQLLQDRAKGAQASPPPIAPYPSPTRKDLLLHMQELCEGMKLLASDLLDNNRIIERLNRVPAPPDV

Compound: N#Cc1cc(-c2ncnc(Nc3ccc(N4CCN(C5COC5)CC4)cc3)n2)ccc1O[C@H]1CCN(C(=O)c2ccc[nH]2)C[C@H]1F [Example 141, 2-(((3R,4S)-3-fluoro-1-(1H-pyrrole-2-carbonyl)piperidin-4-yl)oxy)-5-(4-((4-(4-(oxetan-3-yl)piperazin-1-yl)phenyl)amino)-1,3,5-triazin-2-yl)benzonitrile]
IC50 (IKKε): 2 nM | IC50 (hJAK2): 356 nM | IC50 (TBK1): 3 nM

Compound: N#Cc1cc(-c2ncnc(Nc3ccc(N4CCN(C5COC5)CC4)cc3)n2)ccc1O[C@H]1CCN(C(=O)c2ncc[nH]2)C[C@H]1F [Example 142, 2-(((3R,4S)-3-fluoro-1-(1H-imidazole-2-carbonyl)piperidin-4-yl)oxy)-5-(4-((4-(4-(oxetan-3-yl)piperazin-1-yl)phenyl)amino)-1,3,5-triazin-2-yl)benzonitrile]
IC50 (IKKε): 4 nM | IC50 (hJAK2): 174 nM | IC50 (TBK1): 3 nM

Compound: N#Cc1cc(-c2ncnc(Nc3ccc(N4CCN(C5COC5)CC4)cc3)n2)ccc1O[C@H]1CCN(C(=O)c2ccn[nH]2)C[C@H]1F [Example 145, 2-(((3R,4S)-3-fluoro-1-(1H-pyrazole-5-carbonyl)piperidin-4-yl)oxy)-5-(4-((4-(4-(oxetan-3-yl)piperazin-1-yl)phenyl)amino)-1,3,5-triazin-2-yl)benzonitrile]
IC50 (IKKε): 1 nM | IC50 (hJAK2): 219 nM | IC50 (TBK1): 2 nM

Compound: N#Cc1cc(-c2ncnc(Nc3ccc(N4CCN(C5COC5)CC4)cc3)n2)ccc1O[C@H]1CCN(C(=O)c2cnc[nH]2)C[C@H]1F [Example 146, 2-(((3R,4S)-3-fluoro-1-(1H-imidazole-5-carbonyl)piperidin-4-yl)oxy)-5-(4-((4-(4-(oxetan-3-yl)piperazin-1-yl)phenyl)amino)-1,3,5-triazin-2-yl)benzonitrile]
IC50 (IKKε): 1 nM | IC50 (hJAK2): 156 nM | IC50 (TBK1): 3 nM

Compound: Cn1cc(C(=O)N2CC[C@H](Oc3ccc(-c4ncnc(Nc5ccc(N6CCN(C7COC7)CC6)cc5)n4)cc3C#N)[C@H](F)C2)nn1 [Example 147, 2-(((3R,4S)-3-fluoro-1-(1-methyl-1H-1,2,3-triazole-4-carbonyl)piperidin-4-yl)oxy)-5-(4-((4-(4-(oxetan-3-yl)piperazin-1-yl)phenyl)amino)-1,3,5-triazin-2-yl)benzonitrile]
IC50 (IKKε): 1 nM | IC50 (hJAK2): 184 nM | IC50 (TBK1): 3 nM

Compound: N#Cc1cc(-c2ncnc(Nc3ccc(N4CCN(C5COC5)CC4)cc3)n2)ccc1O[C@H]1CCN(C(=O)CCO)CC1(F)F [Example 161, (S)-2-((3,3-difluoro-1-(3-hydroxypropanoyl)piperidin-4-yl)oxy)-5-(4-((4-(4-(oxetan-3-yl)piperazin-1-yl)phenyl)amino)-1,3,5-triazin-2-yl)benzonitrile]
IC50 (IKKε): 2 nM | IC50 (hJAK2): 173 nM | IC50 (TBK1): 2 nM

Compound: N#Cc1cc(-c2ncnc(Nc3ccc(N4CCN(C5COC5)CC4)cc3)n2)ccc1OC1CCN(C(=O)c2ccc[nH]2)CC1(F)F (stereo not drawn) [Example 162, 2-((3,3-difluoro-1-(1H-pyrrole-2-carbonyl)piperidin-4-yl)oxy)-5-(4-((4-(4-(oxetan-3-yl)piperazin-1-yl)phenyl)amino)-1,3,5-triazin-2-yl)benzonitrile]
IC50 (IKKε): 4 nM | IC50 (hJAK2): 583 nM | IC50 (TBK1): 5 nM

Compound: N#Cc1cc(-c2ncnc(Nc3ccc(N4CCN(C5COC5)CC4)cc3)n2)ccc1O[C@H]1CCN(C(=O)c2ccn[nH]2)CC1(F)F [Example 164, (S)-2-((3,3-difluoro-1-(1H-pyrazole-5-carbonyl)piperidin-4-yl)oxy)-5-(4-((4-(4-(oxetan-3-yl)piperazin-1-yl)phenyl)amino)-1,3,5-triazin-2-yl)benzonitrile]
IC50 (IKKε): 1 nM | IC50 (hJAK2): 155 nM | IC50 (TBK1): 3 nM

Compound: N#Cc1cc(-c2ncnc(Nc3ccc(N4CCN(C5COC5)CC4)cc3)n2)ccc1O[C@H]1CCN(C(=O)c2cnc[nH]2)CC1(F)F [Example 167, (S)-2-((3,3-difluoro-1-(1H-imidazole-5-carbonyl)piperidin-4-yl)oxy)-5-(4-((4-(4-(oxetan-3-yl)piperazin-1-yl)phenyl)amino)-1,3,5-triazin-2-yl)benzonitrile]
IC50 (IKKε): 1 nM | IC50 (hJAK2): 104 nM | IC50 (TBK1): 3 nM

Continued, values first:

IC50 (IKKε): 7 nM | IC50 (hJAK2): 408 nM | IC50 (TBK1): 4 nM
Compound: N#Cc1cc(-c2ncnc(Nc3ccc(N4CCN(C5COC5)CC4)cc3)n2)ccc1O[C@H]1CCN(C(=O)CCO)C[C@H]1F [Example 139, 2-(((3R,4S)-3-fluoro-1-(3-hydroxypropanoyl)piperidin-4-yl)oxy)-5-(4-((4-(4-(oxetan-3-yl)piperazin-1-yl)phenyl)amino)-1,3,5-triazin-2-yl)benzonitrile]

IC50 (IKKε): 10 nM | IC50 (hJAK2): 341 nM | IC50 (TBK1): 6 nM
Compound: N#Cc1cc(-c2ncnc(Nc3ccc(N4CCN(C5COC5)CC4)cc3)n2)ccc1O[C@H]1CCN(C(=O)C2(O)CC2)C[C@H]1F [Example 140, 2-(((3R,4S)-3-fluoro-1-(1-hydroxycyclopropanecarbonyl)piperidin-4-yl)oxy)-5-(4-((4-(4-(oxetan-3-yl)piperazin-1-yl)phenyl)amino)-1,3,5-triazin-2-yl)benzonitrile]

IC50 (IKKε): 1 nM | IC50 (hJAK2): 84 nM | IC50 (TBK1): 2 nM
Compound: N#Cc1cc(-c2ncnc(Nc3ccc(N4CCN(C5COC5)CC4)cc3)n2)ccc1O[C@H]1CCN(C(=O)c2cnn[nH]2)C[C@H]1F [Example 143, 2-(((3R,4S)-3-fluoro-1-(1H-1,2,3-triazole-5-carbonyl)piperidin-4-yl)oxy)-5-(4-((4-(4-(oxetan-3-yl)piperazin-1-yl)phenyl)amino)-1,3,5-triazin-2-yl)benzonitrile]

IC50 (IKKε): 1 nM | IC50 (hJAK2): 104 nM | IC50 (TBK1): 2 nM
Compound: N#Cc1cc(-c2ncnc(Nc3ccc(N4CCN(C5COC5)CC4)cc3)n2)ccc1O[C@H]1CCN(C(=O)c2nnc[nH]2)C[C@H]1F [Example 144, 2-(((3R,4S)-3-fluoro-1-(4H-1,2,4-triazole-3-carbonyl)piperidin-4-yl)oxy)-5-(4-((4-(4-(oxetan-3-yl)piperazin-1-yl)phenyl)amino)-1,3,5-triazin-2-yl)benzonitrile]

IC50 (IKKε): 3 nM | IC50 (hJAK2): 168 nM | IC50 (TBK1): 1 nM
Compound: C[C@H](O)C(=O)N1CCC(Oc2ccc(-c3ncnc(Nc4ccc(N5CCN(C6COC6)CC5)cc4)n3)cc2C#N)C(F)(F)C1 (stereo partly drawn) [Example 154, 2-((3,3-difluoro-1-((S)-2-hydroxypropanoyl)piperidin-4-yl)oxy)-5-(4-((4-(4-(oxetan-3-yl)piperazin-1-yl)phenyl)amino)-1,3,5-triazin-2-yl)benzonitrile]

IC50 (IKKε): 14 nM | IC50 (hJAK2): 188 nM | IC50 (TBK1): 3 nM
Compound: C[C@@H](O)C(=O)N1CCC(Oc2ccc(-c3ncnc(Nc4ccc(N5CCN(C6COC6)CC5)cc4)n3)cc2C#N)C(F)(F)C1 (stereo partly drawn) [Example 157, 2-((3,3-difluoro-1-((R)-2-hydroxypropanoyl)piperidin-4-yl)oxy)-5-(4-((4-(4-(oxetan-3-yl)piperazin-1-yl)phenyl)amino)-1,3,5-triazin-2-yl)benzonitrile]

IC50 (IKKε): 61 nM | IC50 (hJAK2): 877 nM | IC50 (TBK1): 15 nM
Compound: C[C@@H]1C[C@@H](Oc2ccc(-c3ncnc(Nc4ccc(N5CCN(C6COC6)CC5)cc4)n3)cc2C#N)CCN1C(=O)CO [Example 168, 2-(((2R,4S)-1-(2-hydroxyacetyl)-2-methylpiperidin-4-yl)oxy)-5-(4-((4-(4-(oxetan-3-yl)piperazin-1-yl)phenyl)amino)-1,3,5-triazin-2-yl)benzonitrile]
